# Results: PubChem BioAssay (NCI)
#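 GI50 marks 50% less growth. The concentration for full growth arrest is given as TGI.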
# Columns and labels:
# Assay in all cases: NCI tumour cell line growth inhibition, 384-well format
# A498 renal = system: A498 renal
# A549 NSCLC = system: A549 NSCLC
# ACHN renal = system: ACHN renal
# BT-549 breast = system: BT-549 breast
# CAKI-1 renal = system: CAKI-1 renal
# CCRF-CEM leukemia = system: CCRF-CEM leukemia
# COLO 205 colon = system: COLO 205 colon
# DU-145 prostate = system: DU-145 prostate
# EKVX NSCLC = system: EKVX NSCLC
# HCC-2998 colon = system: HCC-2998 colon
# HCT-116 colon = system: HCT-116 colon
# HCT-15 colon = system: HCT-15 colon
# HL-60(TB) leukemia = system: HL-60(TB) leukemia
# HOP-62 NSCLC = system: HOP-62 NSCLC
# HOP-92 NSCLC = system: HOP-92 NSCLC
# HS 578T breast = system: HS 578T breast
# HT29 colon = system: HT29 colon
# IGROV1 ovarian = system: IGROV1 ovarian
# K-562 leukemia = system: K-562 leukemia
# KM12 colon = system: KM12 colon
# LOX IMVI melanoma = system: LOX IMVI melanoma
# M14 melanoma = system: M14 melanoma
# MALME-3M melanoma = system: MALME-3M melanoma
# MCF7 breast = system: MCF7 breast
# MDA-MB-231 breast = system: MDA-MB-231 breast
# MDA-MB-468 breast = system: MDA-MB-468 breast
# NCI-H226 lung = system: NCI-H226 lung
# NCI-H322M lung = system: NCI-H322M lung
# NCI-H522 lung = system: NCI-H522 lung
# OVCAR-3 ovarian = system: OVCAR-3 ovarian
# OVCAR-4 ovarian = system: OVCAR-4 ovarian
# OVCAR-5 ovarian = system: OVCAR-5 ovarian
# OVCAR-8 ovarian = system: OVCAR-8 ovarian
# PC-3 prostate = system: PC-3 prostate
# RPMI-8226 leukemia = system: RPMI-8226 leukemia
# SF-268 CNS = system: SF-268 CNS
# SF-539 CNS = system: SF-539 CNS
# SK-MEL-2 melanoma = system: SK-MEL-2 melanoma
# SK-MEL-28 melanoma = system: SK-MEL-28 melanoma
# SN12C renal = system: SN12C renal
# SNB-19 CNS = system: SNB-19 CNS
# SR leukemia = system: SR leukemia
# SW-620 colon = system: SW-620 colon
# T-47D breast = system: T-47D breast
# TK-10 renal = system: TK-10 renal
# U251 glioblastoma = system: U251 glioblastoma
# UACC-62 melanoma = system: UACC-62 melanoma
# UO-31 renal = system: UO-31 renal
smiles,measurement,setting,value
COc1ccc2c(Oc3ccc(NC(=O)c4c(C)n(CC(C)(C)O)n(-c5ccccc5)c4=O)nc3)ccnc2c1,GI50,A498 renal,4.43 µM
same,TGI,A498 renal,> 100 µM
same,GI50,A549 NSCLC,16.8 µM
same,TGI,A549 NSCLC,> 100 µM
same,GI50,ACHN renal,5.81 µM
same,TGI,ACHN renal,> 100 µM
same,GI50,BT-549 breast,11.5 µM
same,TGI,BT-549 breast,25.7 µM
same,GI50,CAKI-1 renal,3.45 µM
same,TGI,CAKI-1 renal,> 100 µM
same,GI50,CCRF-CEM leukemia,10.3 µM
same,TGI,CCRF-CEM leukemia,22 µM
same,GI50,COLO 205 colon,42.2 µM
same,TGI,COLO 205 colon,> 100 µM
same,GI50,DU-145 prostate,8.18 µM
same,TGI,DU-145 prostate,> 100 µM
same,GI50,EKVX NSCLC,37.3 µM
same,TGI,EKVX NSCLC,> 100 µM
same,GI50,HCC-2998 colon,> 100 µM
same,TGI,HCC-2998 colon,> 100 µM
same,GI50,HCT-116 colon,10.5 µM
same,TGI,HCT-116 colon,30.2 µM
same,GI50,HCT-15 colon,6.05 µM
same,TGI,HCT-15 colon,> 100 µM
same,GI50,HL-60(TB) leukemia,5.49 µM
same,TGI,HL-60(TB) leukemia,14.9 µM
same,GI50,HOP-62 NSCLC,15.3 µM
same,TGI,HOP-62 NSCLC,> 100 µM
same,GI50,HOP-92 NSCLC,10.4 µM
same,TGI,HOP-92 NSCLC,41.1 µM
same,GI50,HS 578T breast,4.65 µM
same,TGI,HS 578T breast,34.6 µM
same,GI50,HT29 colon,39.9 µM
same,TGI,HT29 colon,> 100 µM
same,GI50,IGROV1 ovarian,9.46 µM
same,TGI,IGROV1 ovarian,> 100 µM
same,GI50,K-562 leukemia,1.16 µM
same,TGI,K-562 leukemia,2.51 µM
same,GI50,KM12 colon,0.73 µM
same,TGI,KM12 colon,> 100 µM
same,GI50,LOX IMVI melanoma,47.2 µM
same,TGI,LOX IMVI melanoma,> 100 µM
same,GI50,M14 melanoma,6.34 µM
same,TGI,M14 melanoma,70.2 µM
same,GI50,MALME-3M melanoma,5.26 µM
same,TGI,MALME-3M melanoma,60 µM
same,GI50,MCF7 breast,46.4 µM
same,TGI,MCF7 breast,> 100 µM
same,GI50,MDA-MB-231 breast,9.28 µM
same,TGI,MDA-MB-231 breast,29.1 µM
same,GI50,MDA-MB-468 breast,22.9 µM
same,TGI,MDA-MB-468 breast,> 100 µM
same,GI50,NCI-H226 lung,22.6 µM
same,TGI,NCI-H226 lung,> 100 µM
same,GI50,NCI-H322M lung,10.3 µM
same,TGI,NCI-H322M lung,> 100 µM
same,GI50,NCI-H522 lung,14.4 µM
same,TGI,NCI-H522 lung,54.1 µM
same,GI50,OVCAR-3 ovarian,13 µM
same,TGI,OVCAR-3 ovarian,31.6 µM
same,GI50,OVCAR-4 ovarian,15.2 µM
same,TGI,OVCAR-4 ovarian,> 100 µM
same,GI50,OVCAR-5 ovarian,37.8 µM
same,TGI,OVCAR-5 ovarian,> 100 µM
same,GI50,OVCAR-8 ovarian,13.8 µM
same,TGI,OVCAR-8 ovarian,> 100 µM
same,GI50,PC-3 prostate,18.5 µM
same,TGI,PC-3 prostate,> 100 µM
same,GI50,RPMI-8226 leukemia,6.85 µM
same,TGI,RPMI-8226 leukemia,19.4 µM
same,GI50,SF-268 CNS,19.9 µM
same,TGI,SF-268 CNS,> 100 µM
same,GI50,SF-539 CNS,10.1 µM
same,TGI,SF-539 CNS,64 µM
same,GI50,SK-MEL-2 melanoma,13 µM
same,TGI,SK-MEL-2 melanoma,33.4 µM
same,GI50,SK-MEL-28 melanoma,25.2 µM
same,TGI,SK-MEL-28 melanoma,84.8 µM
same,GI50,SN12C renal,2.24 µM
same,TGI,SN12C renal,86.8 µM
same,GI50,SNB-19 CNS,34.1 µM
same,TGI,SNB-19 CNS,> 100 µM
same,GI50,SR leukemia,6.58 µM
same,TGI,SR leukemia,19 µM
same,GI50,SW-620 colon,56.2 µM
same,TGI,SW-620 colon,> 100 µM
same,GI50,T-47D breast,33.7 µM
same,TGI,T-47D breast,> 100 µM
same,GI50,TK-10 renal,10.8 µM
same,TGI,TK-10 renal,100 µM
same,GI50,U251 glioblastoma,24.7 µM
same,TGI,U251 glioblastoma,> 100 µM
same,GI50,UACC-62 melanoma,4.99 µM
same,TGI,UACC-62 melanoma,24 µM
same,GI50,UO-31 renal,18.4 µM
same,TGI,UO-31 renal,> 100 µM
Cn1cc(-c2ccc(-c3cncc(Cl)c3N3CCC4(CCNC4=O)CC3)cc2)cn1,GI50,A498 renal,4.45 µM
same,TGI,A498 renal,33.1 µM
same,GI50,A549 NSCLC,24.5 µM
same,TGI,A549 NSCLC,98 µM
same,GI50,ACHN renal,15.4 µM
same,TGI,ACHN renal,81.9 µM
same,GI50,BT-549 breast,19.9 µM
same,TGI,BT-549 breast,58.5 µM
same,GI50,CAKI-1 renal,22.5 µM
same,TGI,CAKI-1 renal,> 100 µM
same,GI50,CCRF-CEM leukemia,8.63 µM
same,TGI,CCRF-CEM leukemia,23.9 µM
same,GI50,COLO 205 colon,16.3 µM
same,TGI,COLO 205 colon,> 60 µM
same,GI50,DU-145 prostate,11 µM
same,TGI,DU-145 prostate,62.2 µM
same,GI50,EKVX NSCLC,20.8 µM
same,TGI,EKVX NSCLC,78.8 µM
same,GI50,HCC-2998 colon,15.5 µM
same,TGI,HCC-2998 colon,47.9 µM
same,GI50,HCT-116 colon,13.8 µM
same,TGI,HCT-116 colon,47.3 µM
same,GI50,HCT-15 colon,14.6 µM
same,TGI,HCT-15 colon,> 66.4 µM
same,GI50,HL-60(TB) leukemia,1.73 µM
same,TGI,HL-60(TB) leukemia,5.74 µM
same,GI50,HOP-62 NSCLC,15.2 µM
same,TGI,HOP-62 NSCLC,39.9 µM
same,GI50,HOP-92 NSCLC,40.6 µM
same,TGI,HOP-92 NSCLC,> 100 µM
same,GI50,HS 578T breast,49.1 µM
same,TGI,HS 578T breast,> 100 µM
same,GI50,HT29 colon,9.55 µM
same,TGI,HT29 colon,> 93.3 µM
same,GI50,IGROV1 ovarian,25.2 µM
same,TGI,IGROV1 ovarian,> 100 µM
same,GI50,K-562 leukemia,19 µM
same,TGI,K-562 leukemia,> 100 µM
same,GI50,KM12 colon,21.3 µM
same,TGI,KM12 colon,> 94.3 µM
same,GI50,LOX IMVI melanoma,29.5 µM
same,TGI,LOX IMVI melanoma,> 75.1 µM
same,GI50,M14 melanoma,39.4 µM
same,TGI,M14 melanoma,> 100 µM
same,GI50,MALME-3M melanoma,30.3 µM
same,TGI,MALME-3M melanoma,> 100 µM
same,GI50,MCF7 breast,15.9 µM
same,TGI,MCF7 breast,52.8 µM
same,GI50,MDA-MB-231 breast,17.1 µM
same,TGI,MDA-MB-231 breast,> 76.7 µM
same,GI50,MDA-MB-468 breast,3.15 µM
same,TGI,MDA-MB-468 breast,18.4 µM
same,GI50,NCI-H226 lung,18.6 µM
same,TGI,NCI-H226 lung,59.8 µM
same,GI50,NCI-H322M lung,22.3 µM
same,TGI,NCI-H322M lung,> 95.3 µM
same,GI50,NCI-H522 lung,13.1 µM
same,TGI,NCI-H522 lung,48.2 µM
same,GI50,OVCAR-3 ovarian,17.3 µM
same,TGI,OVCAR-3 ovarian,51.3 µM
same,GI50,OVCAR-4 ovarian,39.6 µM
same,TGI,OVCAR-4 ovarian,> 90 µM
same,GI50,OVCAR-5 ovarian,> 100 µM
same,TGI,OVCAR-5 ovarian,> 100 µM
same,GI50,OVCAR-8 ovarian,25.1 µM
same,TGI,OVCAR-8 ovarian,> 100 µM
same,GI50,PC-3 prostate,26.3 µM
same,TGI,PC-3 prostate,> 100 µM
same,GI50,RPMI-8226 leukemia,1.17 µM
same,TGI,RPMI-8226 leukemia,18.4 µM
same,GI50,SF-268 CNS,45.8 µM
same,TGI,SF-268 CNS,> 100 µM
same,GI50,SF-539 CNS,41.4 µM
same,TGI,SF-539 CNS,> 100 µM
same,GI50,SK-MEL-2 melanoma,16.9 µM
same,TGI,SK-MEL-2 melanoma,39.2 µM
same,GI50,SK-MEL-28 melanoma,20 µM
same,TGI,SK-MEL-28 melanoma,> 65.3 µM
same,GI50,SN12C renal,45.2 µM
same,TGI,SN12C renal,> 100 µM
same,GI50,SNB-19 CNS,47.4 µM
same,TGI,SNB-19 CNS,> 100 µM
same,TGI,SR leukemia,0.485 µM
same,GI50,SW-620 colon,12.3 µM
same,TGI,SW-620 colon,> 86.5 µM
same,GI50,T-47D breast,13.5 µM
same,TGI,T-47D breast,48.4 µM
same,GI50,TK-10 renal,11.2 µM
same,TGI,TK-10 renal,99.9 µM
same,GI50,U251 glioblastoma,30.4 µM
same,TGI,U251 glioblastoma,> 80.1 µM
same,GI50,UACC-62 melanoma,20.1 µM
same,TGI,UACC-62 melanoma,58.1 µM
same,GI50,UO-31 renal,26.9 µM
same,TGI,UO-31 renal,> 100 µM
